Experimental data reported in PubChem BioAssay AID2060607 (Molecular Pharmacology Branch, DTP, NCI, 2025).
pIC50: −log10 of the molar value.

System: 876862-298-R-J1-PDC complex spheroids, viability % test/control
Assay: Anticancer human tumor 876862-298-R-J1-PDC patient-derived endometrial carcinoma cell line growth inhibition [CLK]
Settings: for pIC50: curve of first compound; for viability, T/C: stronger effect = lower value
From the text: A high-throughput screen of multi-cell type tumor spheroids was designed to identify active combinations of […] and targeted small molecules. Complex spheroids include a stromal component modeled by human endothelial cells (HUVEC) and fibroblasts modeled by human mesenchymal stem cells (MSCs). The concentration ranges selected for each drug and investigational agent were based upon clinically achievable concentrations if the clinical Cmax of the agent was known.
Compounds. The drugs and investigational agents: cirtuvivint (SM08502; NSC835563), CC-671 (NSC850746), vemurafenib (NSC761431), tapotoclax (NSC804041), sotorasib (NSC818433), adagrasib (NSC831453), MRTX-1133 (NSC836407), BAY2416964 (NSC825713), copanlisib (NSC816437), inavolisib (NSC800729), abemaciclib (NSC768073), osimertinib (NSC779217), entinostat (NSC756642), eltanexor (KPT-8602, NSC794443), venetoclax (NSC766270), ceralasertib (NSC777638), bortezomib (NSC756655), olaparib (NSC753686), talazoparib (NSC767125), alisertib (NSC759677), peposertib (NSC802822), gemcitabine (NSC613327), 5-fluorouracil (NSC19893), SN-38 (NSC673596), oxaliplatin (NSC266046), paclitaxel (NSC125973), and doxorubicin (NSC123127), were obtained from the National Cancer Institute (NCI) Developmental Therapeutics Program Chemical Repository. The FDA-approved anticancer drug set is available from the Developmental Therapeutics Program at https://dtp.cancer.gov/organization/dscb/obtaining/available plates.htm. […] The stock solutions were prepared in dimethyl sulfoxide (DMSO, Sigma-Aldrich, St. Louis, MO, cat. D2650), except for the platinum complexes which were prepared in saline (Quality Biological, Gaithersburg, MD, cat. 114-055-101), at 800-fold the tested concentration and stored at -70 degrees C prior to their use. All drugs and investigational agents were tested over a range starting from a high concentration at or near the clinical Cmax and decreasing in half-log increments. If the clinical Cmax for an agent had not been determined, the highest concentration tested was 10 microM.
Cell Culture. All cells were maintained in an incubator at 37 degrees C and 5% CO2 with 95% humidity. The PDC lines were cultured according to standard operating procedures established by the NCI PDMR. Briefly, all PDCs were thawed and cultured in Matrigel-coated flasks prepared with a working solution of 1X Ham's F-12 nutrient mix, without supplementation (Invitrogen, Waltham, MA, cat. 11765054), 100 U/mL penicillin-streptomycin (Invitrogen, cat. 15140122), and 2.5% Matrigel (Corning Inc., Corning, NY, cat. 354248) for the first three passages. The 947758-054-R-J2-PDC line was cultured in 6B/Colon 1A media, which includes advanced DMEM/F-12 (Thermo Fisher Scientific, cat. 12634028), 10 mM HEPES (Thermo Fisher Scientific, cat. 15630080), 1X GlutaMAX supplement (Thermo Fisher Scientific, cat. 35050061), 0.1 mg/mL primocin (InvivoGen, cat. ant-pm-2), 10% defined fetal bovine serum, heat inactivated (HyClone Laboratories Inc., cat. SH30070.03HI), 1.25 mM N-Acetyl-L-cysteine (Sigma-Aldrich, cat. A9165), 10 mM nicotinamide (Sigma-Aldrich, cat. N0636), 1X B-27 supplement (Thermo Fisher Scientific, cat. 17504044), 1X N-2 supplement (Thermo Fisher Scientific, cat. 17502048), and 10 microM Y-27632 dihydrochloride (Tocris Bioscience, cat. 1254). The 876862-298-R-J1-PDC was cultured in 6E media, which includes all 6B/Colon 1A media components plus 50% L-WRN conditioned media (ATCC, cat. CRL-3276), 50 ng/mL recombinant human EGF recombinant protein (hEGF; Thermo Fisher Scientific, cat. PHG0311), 10 ng/mL recombinant human fibroblast growth factor 10 (hGFG-10; PeproTech, cat. 100-26), 1 ng/mL recombinant human fibroblast growth factor 2 (hFGF-2; PeproTech, cat. 100-18B), and 1 µM prostaglandin E2 (PGE2; Tocris, cat. 2296). The 227483-062-R1-J1-PDC line was cultured in Panc media, containing all 6E components except hFGF-2, with the addition of 500 nM SB-431542 (Selleckchem, cat. S1067) and 10 nM gastrin (Tocris, cat. 3006). […]

[1] = second compound 0.0316 µM, first compound 0.0316 µM
[2] = second compound 0.0316 µM, first compound 0.1 µM
[3] = second compound 0.0316 µM, first compound 0.316 µM
[4] = second compound 0.0316 µM, first compound 1 µM
[5] = second compound 0.0316 µM, first compound 3.16 µM
[6] = second compound 0.0316 µM, first compound 10 µM
[7] = second compound 0.1 µM, first compound 0.0316 µM
[8] = second compound 0.1 µM, first compound 0.1 µM
[9] = second compound 0.1 µM, first compound 0.316 µM
[10] = second compound 0.1 µM, first compound 1 µM
[11] = second compound 0.1 µM, first compound 3.16 µM
[12] = second compound 0.1 µM, first compound 10 µM
[13] = second compound 0.316 µM, first compound 0.0316 µM
[14] = second compound 0.316 µM, first compound 0.1 µM
[15] = second compound 0.316 µM, first compound 0.316 µM
[16] = second compound 0.316 µM, first compound 1 µM
[17] = second compound 0.316 µM, first compound 3.16 µM
[18] = second compound 0.316 µM, first compound 10 µM
[19] = second compound 1 µM, first compound 0.0316 µM
[20] = second compound 1 µM, first compound 0.1 µM
[21] = second compound 1 µM, first compound 0.316 µM
[22] = second compound 1 µM, first compound 1 µM
[23] = second compound 1 µM, first compound 3.16 µM
[24] = second compound 1 µM, first compound 10 µM
[25] = second compound 3.16 µM, first compound 0.0316 µM
[26] = second compound 3.16 µM, first compound 0.1 µM
[27] = second compound 3.16 µM, first compound 0.316 µM
[28] = second compound 3.16 µM, first compound 1 µM
[29] = second compound 3.16 µM, first compound 3.16 µM
[30] = second compound 3.16 µM, first compound 10 µM
[31] = second compound 10 µM, first compound 0.0316 µM
[32] = second compound 10 µM, first compound 0.1 µM
[33] = second compound 10 µM, first compound 0.316 µM
[34] = second compound 10 µM, first compound 1 µM
[35] = second compound 10 µM, first compound 3.16 µM
[36] = second compound 10 µM, first compound 10 µM
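Further: spheroids exposed to drugs for 7 days before readout.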
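Wherever viability, T/C is given: 100% = DMSO vehicle control wells.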

CCCS(=O)(=O)Nc1ccc(F)c(C(=O)c2c[nH]c3ncc(-c4ccc(Cl)cc4)cc23)c1F + CN1CCN(c2cc(C(=O)Nc3cc4cc(-c5cnn(C)c5)ccc4cn3)ccn2)CC1
pIC50 (second compound 0.0316 µM): 5.17
pIC50 (second compound 0.1 µM): 6.01
pIC50 (second compound 0.316 µM): > 7.50
pIC50 (second compound 1 µM): > 7.50
pIC50 (second compound 3.16 µM): > 7.50
pIC50 (second compound 10 µM): > 7.50
viability, T/C [1]: 103%
viability, T/C [2]: 93.4%
viability, T/C [3]: 89.2%
viability, T/C [4]: 101%
viability, T/C [5]: 77.1%
viability, T/C [6]: 36.1%
viability, T/C [7]: 63.4%
viability, T/C [8]: 51.6%
viability, T/C [9]: 53.1%
viability, T/C [10]: 50.7%
viability, T/C [11]: 42.2%
viability, T/C [12]: 22.5%
viability, T/C [13]: 4.72%
viability, T/C [14]: 3.82%
viability, T/C [15]: 5.6%
viability, T/C [16]: 5.09%
viability, T/C [17]: 5.93%
viability, T/C [18]: 3.83%
viability, T/C [19]: 0.82%
viability, T/C [20]: 1.88%
viability, T/C [21]: 1.54%
viability, T/C [22]: 2.17%
viability, T/C [23]: 3.28%
viability, T/C [24]: 1.25%
viability, T/C [25]: 1.32%
viability, T/C [26]: 2.22%
viability, T/C [27]: 9.57%
viability, T/C [28]: 1.58%
viability, T/C [29]: 2.88%
viability, T/C [30]: 2.88%
viability, T/C [31]: 1.06%
viability, T/C [32]: 1.12%
viability, T/C [33]: 1.23%
viability, T/C [34]: 10.9%
viability, T/C [35]: 7.9%
viability, T/C [36]: 2.22%

COC1C=CCC(C)C(C)S(=O)(=O)NC(=O)c2ccc3c(c2)N(CC2CCC21)CC1(CCCc2cc(Cl)ccc21)CO3 (centres undefined) + CN1CCN(c2cc(C(=O)Nc3cc4cc(-c5cnn(C)c5)ccc4cn3)ccn2)CC1
pIC50 (second compound 0.0316 µM): 5.13
pIC50 (second compound 0.1 µM): 6.67
pIC50 (second compound 0.316 µM): > 7.50
pIC50 (second compound 1 µM): > 7.50
pIC50 (second compound 3.16 µM): > 7.50
pIC50 (second compound 10 µM): > 7.50
viability, T/C [1]: 93.9%
viability, T/C [2]: 96.6%
viability, T/C [3]: 97.6%
viability, T/C [4]: 96.3%
viability, T/C [5]: 96.7%
viability, T/C [6]: 33.5%
viability, T/C [7]: 56.9%
viability, T/C [8]: 51.1%
viability, T/C [9]: 47.6%
viability, T/C [10]: 39%
viability, T/C [11]: 38.6%
viability, T/C [12]: 18.8%
viability, T/C [13]: 4.28%
viability, T/C [14]: 3.17%
viability, T/C [15]: 2.26%
viability, T/C [16]: 1.91%
viability, T/C [17]: 1.34%
viability, T/C [18]: 0.56%
viability, T/C [19]: 0.93%
viability, T/C [20]: 0.64%
viability, T/C [21]: 25.5%
viability, T/C [22]: 0.78%
viability, T/C [23]: 25.2%
viability, T/C [24]: 2.2%
viability, T/C [25]: 1.34%
viability, T/C [26]: 1.14%
viability, T/C [27]: 1.59%
viability, T/C [28]: 1.26%
viability, T/C [29]: 1.14%
viability, T/C [30]: 0.26%
viability, T/C [31]: 1.69%
viability, T/C [32]: 1.52%
viability, T/C [33]: 2.33%
viability, T/C [34]: 26.3%
viability, T/C [35]: 1.84%
viability, T/C [36]: 1.78%
